# Experiments:
# [1] = clinical use; cited from earlier work
# [2] = Rosiglitazone treatment of diet-induced obese mice: body weight, fasting plasma glucose and insulin, IPGTT; assay type: in vivo; settings: obese C57BL/6J mice, 10 mg/kg/day by gavage, vs vehicle
# Description: Ten adult (6 week-old) male C57BL/6J mice were purchased from the Jackson Laboratory. Mice were housed in a pathogen-free barrier facility (12 h light/12 h dark cycle). […] Mice were weighed every 4 weeks. After 12 weeks blood was collected after a 6 hour fast and plasma glucose levels were analyzed using the Accu-Check glucose meter. Subsequently, mice were treated with rosiglitazone (10 mg/kg/day in 1% carboxymethylcellulose in water) or vehicle by gavaging for 10 days. On day 10 the animals were subjected to an intraperitoneal glucose tolerance test (IPGTT) after a 16 hr overnight fast. Plasma glucose levels were determined at 0, 15, 30, 60 and 120 min using an Accu-Check glucose meter; at each time point 10 μl blood was collected in EDTA-coated tubes (Microvette CB300, Sarstedt, Newton, N.C.) for determination of insulin levels using an ELISA specific for mouse insulin (Alpco Diagnostics, Salem, N.H.). After the IPGTT, mice received a final treatment with rosiglitazone or vehicle (day 11) and were euthanized the next day (day 12) after a 6 hour fast under anaesthesia with isoflurane (Baxter). The epididymal fat pads, subcutaneous fat pads, liver and kidneys were harvested and stored at −80° C. for further analysis.
# Results are expressed as mean±SEM. […]
# [3] = RECORD, cited from earlier work
SMILES,incidence of hepatitis and potential liver failure [1],body weight [2],"cardiovascular death, myocardial infarction, or stroke ([3]; 5-7 years follow-up, vs active control group)",upper and distal lower limb fracture rates ([3]; particularly in women),heart failure that caused either hospital admission or death ([3]; rosiglitazone group (29 in active control group)),"risk difference per 1000 person-years for heart failure ([3]; vs active control, interval 1.1-4.1)","hazard ratio [HR] for heart failure ([3]; vs active control, interval 1.35-3.27)"
CCc1ccc(CCOc2ccc(CC3SC(=O)NC3=O)cc2)nc1 (centres unmarked) [pioglitazone],have not shown higher incidence,–,–,–,–,–,–
CN(CCOc1ccc(CC2SC(=O)NC2=O)cc1)c1ccccn1 (centres unmarked) [rosiglitazone],have not shown higher incidence,did not influence weight,No difference was observed,increased,61 patients,2.6,2.10

# From US20110065756A1, “METHODS AND COMPOSITIONS FOR TREATMENT OF OBESITY-RELATED DISEASES” (priority 2009, published 2011)
